Data taken from US10766866B2, “Deterrents for arthropods and marine organisms” (priority 2017, dated 2020).
Like-named read-outs stand apart in the source and are kept apart here.

How the values were obtained:
[1] = molecular target: T1, DmOctR (Drosophila octopamine receptor), cloned α-like OctR (Drosophila melanogaster, UniProt Q7JQF1); assay: OctR activation: change in intracellular calcium (CALCIUM 6QR dye, FlexStation 3) in stably transfected mammalian cells; type: cell-based; conditions: agonist
T1 construct: Gq calcium readout
T1 sequence (Q7JQF1 1-645): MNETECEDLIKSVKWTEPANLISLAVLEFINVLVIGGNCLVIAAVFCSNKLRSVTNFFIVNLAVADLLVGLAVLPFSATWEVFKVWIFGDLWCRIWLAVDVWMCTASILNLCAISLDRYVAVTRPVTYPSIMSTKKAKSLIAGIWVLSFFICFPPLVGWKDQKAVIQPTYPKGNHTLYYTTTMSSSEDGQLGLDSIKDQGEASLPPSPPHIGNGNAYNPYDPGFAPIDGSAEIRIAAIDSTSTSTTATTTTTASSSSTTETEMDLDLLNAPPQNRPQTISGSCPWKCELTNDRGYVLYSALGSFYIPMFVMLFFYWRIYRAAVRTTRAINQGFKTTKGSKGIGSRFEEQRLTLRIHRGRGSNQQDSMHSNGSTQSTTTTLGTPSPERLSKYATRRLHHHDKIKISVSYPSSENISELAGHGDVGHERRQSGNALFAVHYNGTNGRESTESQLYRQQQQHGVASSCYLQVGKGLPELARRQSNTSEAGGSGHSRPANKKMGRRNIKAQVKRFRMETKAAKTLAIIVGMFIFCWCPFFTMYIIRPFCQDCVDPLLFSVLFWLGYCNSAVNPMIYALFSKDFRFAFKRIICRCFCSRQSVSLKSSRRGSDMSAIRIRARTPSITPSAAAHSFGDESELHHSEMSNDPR
Text: (§1) Functional expression of cloned arthropod OctRs and human α2-ARs: The cDNAs for α-like OctRs from different arthropod species (e.g., Anopheles gambiae, Aedes aegypti, Periplaneta americana, Drosophila melanogaster, Ixodes scapularis, Balanus improvises) and for α2-AR subtypes from humans were individually subcloned into mammalian expression vectors. These plasmids, which harbor a resistance gene for the selection drug G418 and the cDNA sequence for the receptor of interest, were individually transfected into mammalian cells using a calcium phosphate precipitation method. G418 selection was then employed to generated stable clonal cell lines. Utilizing rapid filtration radioligand binding techniques, the cell surface density of receptor expression of the individual clonal cell lines was determined at equilibrium and those with similar high levels of expression were selected for further experiments. Briefly, binding conditions were 50 mM Tris binding buffer pH 7.4 at 25° C. and an ice-cold wash buffer 10 mM Tris-HCl, pH 7.4). The radioligand was [3H]rauwolscine and non-specific binding was determined in the presence of 10 μM atipamezole. Following the addition of membranes prepared from the clonal cell lines, samples were mixed and allowed 2 hr. to reach equilibrium before rapid filtration and washing through 0.3% PEI-treated GF/C filters. The radioactivity remaining on the filters was quantified by scintillation counting. Receptor density (Bmax) was back calculated knowing the specific activity of the radioligand and applying the equation for a square hyperbola model: Bmax=(Y·(KD+X))/X, where Y is [specifically bound radioligand] and X=[radio ligand concentration]. The affinity (KD) for the radioligand for each receptor was determined in separate saturation isotherm binding experiments using the same binding conditions as describe above.
(§2) Measurement of OctR activation by measuring changes in intracellular calcium: Activation of arthropod α-like OctRs increases intracellular calcium via a Gq-coupling mechanism. This involves activation of phospholipase C leading to an increase in intracellular inositol triphosphate (IP3) which then activates IP3-gated calcium channels in the endoplasmic reticulum causing a transient rise in intracellular calcium. These changes in intracellular calcium upon OctR activation were measured by loading cells with intracellular calcium sensitive dye CALCIUM 6QR and reading the change in calcium-induced fluorescent signal over time on a FlexStation 3 microplate reader.

[2] = molecular target: T2, AgAOctR (Anopheles octopamine receptor isoform A), cloned α-like OctR (Anopheles gambiae, UniProt Q7PRZ8); assay: as above; type: cell-based; conditions: agonist
T2 construct: Gq calcium readout
T2 sequence (Q7PRZ8 1-592): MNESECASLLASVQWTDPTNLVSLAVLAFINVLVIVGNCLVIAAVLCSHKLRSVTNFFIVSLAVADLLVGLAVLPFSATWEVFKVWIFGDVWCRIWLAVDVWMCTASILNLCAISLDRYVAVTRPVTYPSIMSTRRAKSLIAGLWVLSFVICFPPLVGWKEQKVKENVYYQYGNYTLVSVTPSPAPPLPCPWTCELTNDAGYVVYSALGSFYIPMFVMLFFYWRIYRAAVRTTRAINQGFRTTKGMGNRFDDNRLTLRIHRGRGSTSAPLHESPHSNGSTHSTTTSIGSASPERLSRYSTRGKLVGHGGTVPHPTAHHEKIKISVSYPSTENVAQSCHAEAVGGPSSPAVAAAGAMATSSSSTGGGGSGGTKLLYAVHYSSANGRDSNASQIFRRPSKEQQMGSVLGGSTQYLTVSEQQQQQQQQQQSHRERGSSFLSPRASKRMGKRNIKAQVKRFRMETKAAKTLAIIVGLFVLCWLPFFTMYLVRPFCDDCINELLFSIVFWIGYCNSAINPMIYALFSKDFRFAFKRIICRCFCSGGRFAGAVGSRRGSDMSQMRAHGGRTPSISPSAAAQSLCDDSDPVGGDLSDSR
Text: as §1, §2

[3] = molecular target: T3, PaOctR (Periplaneta octopamine receptor), cloned α-like OctR (Periplaneta americana, UniProt Q7YWB7); assay: as above; type: cell-based; conditions: agonist
T3 construct: Gq calcium readout
T3 sequence (Q7YWB7 1-628): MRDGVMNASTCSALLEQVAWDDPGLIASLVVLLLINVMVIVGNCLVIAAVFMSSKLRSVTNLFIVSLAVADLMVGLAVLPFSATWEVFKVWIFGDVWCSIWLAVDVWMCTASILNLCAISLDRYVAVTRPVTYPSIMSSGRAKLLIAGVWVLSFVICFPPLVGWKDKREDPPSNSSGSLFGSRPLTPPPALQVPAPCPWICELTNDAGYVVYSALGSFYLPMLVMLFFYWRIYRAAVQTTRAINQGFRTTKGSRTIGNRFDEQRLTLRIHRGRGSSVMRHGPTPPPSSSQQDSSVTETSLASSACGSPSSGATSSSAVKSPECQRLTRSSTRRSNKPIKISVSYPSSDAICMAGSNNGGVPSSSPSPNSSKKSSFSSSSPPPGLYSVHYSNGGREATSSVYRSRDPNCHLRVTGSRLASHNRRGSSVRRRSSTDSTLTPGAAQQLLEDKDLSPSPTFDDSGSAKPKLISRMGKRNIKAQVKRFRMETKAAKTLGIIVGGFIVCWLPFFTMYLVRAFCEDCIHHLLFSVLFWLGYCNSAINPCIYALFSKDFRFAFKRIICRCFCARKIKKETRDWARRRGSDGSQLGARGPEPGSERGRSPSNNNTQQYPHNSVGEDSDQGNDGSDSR
Text: as §1, §2

[4] = tested on: Anopheles gambiae mosquito isoform A OctR (AgAOctR); assay: OctR activation, change in intracellular calcium; type: cell-based; conditions: for selectivity Ki(Hsα2-AR)/EC50(OctR): AgAOctR over Homo sapien α2-AR subtypes
Text: as §1, §2

[5] = tested on: AeOctR (Aedes octopamine receptor), cloned α-like OctR; assay: OctR activation: change in intracellular calcium (CALCIUM 6QR dye, FlexStation 3) in stably transfected mammalian cells; type: cell-based, Aedes aegypti; conditions: agonist
Text: as §1, §2

[6] = molecular target: T4, Hsα2C-AR (human α2C adrenergic receptor) (Homo sapiens, UniProt P18825); assay: [3H]rauwolscine competition radioligand binding, membranes of clonal mammalian cell lines; conditions: 50 mM Tris pH 7.4, 25° C., 2 hr, Cheng-Prusoff
T4 construct: expressed in transfected cells
T4 sequence (P18825 1-462): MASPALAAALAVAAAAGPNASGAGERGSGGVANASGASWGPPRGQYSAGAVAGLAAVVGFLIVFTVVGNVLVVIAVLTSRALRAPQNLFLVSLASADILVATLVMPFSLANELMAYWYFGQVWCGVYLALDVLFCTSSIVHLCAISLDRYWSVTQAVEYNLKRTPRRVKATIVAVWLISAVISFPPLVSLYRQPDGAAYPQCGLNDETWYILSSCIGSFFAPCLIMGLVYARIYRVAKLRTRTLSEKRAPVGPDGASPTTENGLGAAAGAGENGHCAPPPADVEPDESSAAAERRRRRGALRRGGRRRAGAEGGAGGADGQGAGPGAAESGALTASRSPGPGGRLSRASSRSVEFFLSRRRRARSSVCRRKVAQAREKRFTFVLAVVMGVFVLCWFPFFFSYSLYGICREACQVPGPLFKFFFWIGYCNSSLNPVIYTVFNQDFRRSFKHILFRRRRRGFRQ
Text: as §1
(§3) Measurement of compound affinities by competition radioligand binding: Affinities (Ki) for compounds were determined by [3H]rauwolscine competition binding using the same binding conditions as described above. The Ki values were calculated from IC50 values using the Cheng-Prusoff equation.

[7] = molecular target: T5, Hsα2A-AR (human α2A adrenergic receptor) (Homo sapiens, UniProt P08913); assay: as above; conditions: 50 mM Tris pH 7.4, 25° C., 2 hr, Cheng-Prusoff
T5 construct: expressed in transfected cells; membranes
T5 sequence (P08913 whole entry): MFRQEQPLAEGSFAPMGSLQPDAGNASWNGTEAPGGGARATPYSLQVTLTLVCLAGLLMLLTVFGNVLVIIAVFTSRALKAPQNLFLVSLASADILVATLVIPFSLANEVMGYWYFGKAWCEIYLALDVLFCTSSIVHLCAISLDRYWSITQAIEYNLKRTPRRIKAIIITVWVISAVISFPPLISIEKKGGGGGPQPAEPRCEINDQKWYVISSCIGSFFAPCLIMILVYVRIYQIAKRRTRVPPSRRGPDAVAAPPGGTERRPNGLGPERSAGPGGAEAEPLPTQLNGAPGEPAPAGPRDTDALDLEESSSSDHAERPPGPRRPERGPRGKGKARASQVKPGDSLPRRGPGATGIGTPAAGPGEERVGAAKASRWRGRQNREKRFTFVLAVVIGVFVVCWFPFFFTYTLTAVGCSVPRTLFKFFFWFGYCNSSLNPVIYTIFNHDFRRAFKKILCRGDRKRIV
Text: as §1, §3

[8] = tested on: IsTOctR (Ixodes octopamine receptor), cloned α-like OctR; assay: OctR activation: change in intracellular calcium (CALCIUM 6QR dye, FlexStation 3) in stably transfected mammalian cells; type: cell-based, Ixodes scapularis
Text: as §1, §2

[9] = tested on: Aedes aegypti α-like OctR (AeOctR); assay: OctR activation, change in intracellular calcium; type: cell-based; conditions: 100 μM; normalized to octopamine at a supersaturating concentration; FIG. 1B
Text: as §1, §2

[10] = molecular target: T6, Drosophila melanogaster α-like OctR (DmOctR) (Drosophila melanogaster, UniProt Q7JQF1); assay: OctR activation, change in intracellular calcium; type: cell-based; conditions: 100 μM; normalized to octopamine at a supersaturating concentration; FIG. 1A
T6 construct: expressed in transfected cells
T6 sequence (Q7JQF1 1-645): T1 sequence (Q7JQF1 1-645)
Text: as §1, §2

[11] = tested on: Ixodes scapularis tick OctR (IsTOctR); assay: OctR activation, change in intracellular calcium; type: cell-based; conditions: 100 μM; normalized to octopamine at a supersaturating concentration; FIG. 1C
Text: as §1, §2

[12] = tested on: Periplaneta americana OctR (PaOctR); assay: OctR activation, change in intracellular calcium; type: cell-based; conditions: 100 μM; normalized to octopamine at a supersaturating concentration; FIG. 1D
Text: as §1, §2

[13] = tested on: Aedes mosquito; assay: Protection against mosquito biting and toxicity to mosquitoes; type: in vivo; conditions: DEET: at the lowest concentration that produces maximal protection against biting (LC50)
[14] = agonist, read-out: IsTOctR (Ixodes octopamine receptor) EC50

SMILES	EC50 [1] [nM]	EC50 [2] [nM]	EC50 [3] [nM]	selectivity Ki(Hsα2-AR)/EC50(OctR) [4]	Ki [6] [nM]	Ki [7] [nM]	EC50 [8, 14] [nM]	agonist response (change in intracellular calcium) relative to octopamine [9]	agonist response (change in intracellular calcium) relative to octopamine [10]	also measured
COC(c1cnc[nH]1)c1cccc(C)c1C (stereo not drawn) [AZ1400]	846 ± 440	2.3 ± 0.69	85 ± 34	highly selective	973 ± 146	1310 ± 247	35 ± 7.4	–	–	EC50 [5]: > 20000 nM
C=C(c1cnc[nH]1)c1cccc(C(F)(F)F)c1C [AZ1415]	–	0.58 ± 0.61	–	highly selective	–	–	18 ± 6.9	–	–	efficacy (full/partial agonist) ([4]; in words, FIGS. 9-12): full efficacy; potency (EC50) ([4]; in words, FIGS. 9-12): high potency
Cc1cccc(C(O)c2cnc[nH]2)c1C (stereo not drawn) [AZ0024]	57 ± 13	0.42 ± 0.13	5.9 ± 2.9	highly selective	558 ± 85	356 ± 77	4.4 ± 2.9	–	–	EC50 [5]: 627 ± 274 nM
CC1CCC(C(C)(C)O)C(O)C1 (stereo not drawn) [PMD, para-menthane-3,8-diol]	–	–	–	–	–	–	–	< 25%	< 25%	–
CCN(CC)C(=O)c1cccc(C)c1 [DEET, N,N-diethyl-meta-toluamide]	–	–	–	–	–	–	–	did not produce a significant agonist response	did not produce a significant agonist response	agonist response (change in intracellular calcium) relative to octopamine [11]: did not produce a significant agonist response; agonist response (change in intracellular calcium) relative to octopamine [12]: did not produce a significant agonist response; toxicity to mosquitoes [13]: lethal in half the mosquitoes
C/C=C(/c1cnc[nH]1)c1cccc(C)c1C [AZ1440 E-isomer]	–	10 ± 4.7	–	–	–	–	–	–	–	EC50 ([8]; read-out: IsTOctR (Ixodes octopamine receptor) EC50, agonist): 90 ± 25 nM
Cc1cccc(C(O)c2cnc[nH]2)c1 (stereo not drawn) [AZ1410]	–	38 ± 16	–	highly selective	9440 ± 6470	4200 ± 1760	185 ± 92	–	–	–
CCCCN(CCC(=O)OCC)C(C)=O [IR3535, ethyl butylacetylaminopropionate]	–	–	–	–	–	–	–	did not produce a significant agonist response	did not produce a significant agonist response	agonist response (change in intracellular calcium) relative to octopamine [11]: did not produce a significant agonist response; agonist response (change in intracellular calcium) relative to octopamine [12]: did not produce a significant agonist response
C/C=C(\c1cnc[nH]1)c1cccc(C)c1C [AZ1409 Z-isomer]	–	58 ± 41	–	–	–	–	969 ± 358	–	–	–
Cc1c(C(O)c2cnc[nH]2)cccc1C(F)(F)F (stereo not drawn) [AZ1399]	367 ± 237	11 ± 3.7	82 ± 25	highly selective	2110 ± 385	3210 ± 672	43 ± 11	–	–	–
